Laboratory results reported in ChEMBL document CHEMBL1201862, “PubChem BioAssay data set” (2004).
One block for each compound: values may come before it. Calls of active or inactive are those of the source.

Tests used:
[1] = target: T1, Low molecular weight phosphotyrosine protein phosphatase (Homo sapiens, UniProt P24666); assay type: functional; settings: read-out: IC50_Mean;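 also: Dose-response confirmation assay measuring inhibition of LMPTP enzyme activity by fluorescence intensity read-out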
T1 sequence (P24666 whole entry): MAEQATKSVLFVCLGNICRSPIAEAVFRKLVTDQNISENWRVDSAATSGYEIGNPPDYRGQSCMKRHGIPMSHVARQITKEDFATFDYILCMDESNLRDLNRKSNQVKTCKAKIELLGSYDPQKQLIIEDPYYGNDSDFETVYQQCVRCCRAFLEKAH

[2] = target: T2, High affinity choline transporter 1 (Homo sapiens, UniProt Q9GZV3); assay: CHT inhibitors, dose response, cell-based, 5-point CRC, membrane potential dye (AID 504840); assay type: functional
T2 sequence (Q9GZV3 whole entry): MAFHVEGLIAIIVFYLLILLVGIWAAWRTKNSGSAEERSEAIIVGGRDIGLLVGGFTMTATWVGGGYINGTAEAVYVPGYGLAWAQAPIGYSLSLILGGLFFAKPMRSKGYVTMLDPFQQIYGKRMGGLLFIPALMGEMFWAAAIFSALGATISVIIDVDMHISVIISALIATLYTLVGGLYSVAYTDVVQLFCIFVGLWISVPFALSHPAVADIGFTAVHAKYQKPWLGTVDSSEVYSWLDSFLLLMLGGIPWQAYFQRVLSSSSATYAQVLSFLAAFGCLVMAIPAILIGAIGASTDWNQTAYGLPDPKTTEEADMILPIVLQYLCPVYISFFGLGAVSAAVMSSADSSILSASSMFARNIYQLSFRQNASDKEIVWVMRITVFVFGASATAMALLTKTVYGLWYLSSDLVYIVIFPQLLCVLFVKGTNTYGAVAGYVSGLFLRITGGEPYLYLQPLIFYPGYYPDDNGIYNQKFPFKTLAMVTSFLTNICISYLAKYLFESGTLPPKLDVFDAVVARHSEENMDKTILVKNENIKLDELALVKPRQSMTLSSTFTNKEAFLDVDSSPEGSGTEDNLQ

[3] = target: T2, High affinity choline transporter 1; assay: CHT inhibitors, dose response, cell-based, 10-point CRC, membrane potential dye (AID 588401); assay type: functional;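 also: membrane potential dye fluorescence of choline-evoked depolarization via CHT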
[4] = target: T2, High affinity choline transporter 1; assay: inhibitors of CHT choline uptake, dose response, cell-based, 3H-choline uptake, CHT LV-AA trafficking mutant, CRC (AID 602208); assay type: functional
[5] = target: DNA (cytosine-5)-methyltransferase 1 (Homo sapiens, UniProt P26358); assay: DNMT1 methyltransferase inhibitors, confirmation, biochemical, fluorescent molecular beacon (AID 602386); assay type: functional
[6] = DNA binding of candidate compounds, dose response, artefact control for RAD54 inhibitor project, biochemical, fluorescence polarization, cherry-pick (AID 651673); assay type: functional
[7] = target: T3, DNA repair and recombination protein RAD54-like (Homo sapiens, UniProt Q92698); assay: inhibitors of human RAD54 branch migration, confirmation, biochemical, fluorescence, cherry-picked samples, dose series (AID 651657); assay type: functional
T3 sequence (Q92698 whole entry): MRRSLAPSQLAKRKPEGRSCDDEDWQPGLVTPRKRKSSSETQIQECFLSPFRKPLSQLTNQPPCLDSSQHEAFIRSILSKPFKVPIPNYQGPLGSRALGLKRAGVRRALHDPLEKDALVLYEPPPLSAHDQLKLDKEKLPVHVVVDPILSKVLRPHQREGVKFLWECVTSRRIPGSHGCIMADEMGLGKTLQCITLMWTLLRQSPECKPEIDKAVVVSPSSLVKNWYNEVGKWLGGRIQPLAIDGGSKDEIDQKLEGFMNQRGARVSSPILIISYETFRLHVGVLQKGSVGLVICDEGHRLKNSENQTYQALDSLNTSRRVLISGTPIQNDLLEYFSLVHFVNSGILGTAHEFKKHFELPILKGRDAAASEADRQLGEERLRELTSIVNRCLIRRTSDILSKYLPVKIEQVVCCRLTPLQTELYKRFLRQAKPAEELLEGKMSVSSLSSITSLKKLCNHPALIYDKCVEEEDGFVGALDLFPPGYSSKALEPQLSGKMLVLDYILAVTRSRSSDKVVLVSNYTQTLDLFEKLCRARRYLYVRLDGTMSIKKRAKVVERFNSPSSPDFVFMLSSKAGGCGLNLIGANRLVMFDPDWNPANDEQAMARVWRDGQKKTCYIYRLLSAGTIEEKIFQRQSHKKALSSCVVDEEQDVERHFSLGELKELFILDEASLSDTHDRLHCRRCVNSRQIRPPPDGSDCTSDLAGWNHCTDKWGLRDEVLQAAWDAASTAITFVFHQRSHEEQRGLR

[8] = target: SWI/SNF-related matrix-associated actin-dependent regulator of chromatin subfamily A member 2 (Homo sapiens, UniProt P51531); assay: Luminescence-based cell-based high throughput dose response assay to identify activators of the function of SWI/SNF related, matrix associated, actin dependent regulator of chromatin, subfamily a, member 2 (SMARCA2, BRM).; assay type: functional
[9] = target: T4, DNA repair protein RAD52 homolog (Homo sapiens, UniProt P43351); assay type: functional, biochemical
T4 sequence (P43351 whole entry): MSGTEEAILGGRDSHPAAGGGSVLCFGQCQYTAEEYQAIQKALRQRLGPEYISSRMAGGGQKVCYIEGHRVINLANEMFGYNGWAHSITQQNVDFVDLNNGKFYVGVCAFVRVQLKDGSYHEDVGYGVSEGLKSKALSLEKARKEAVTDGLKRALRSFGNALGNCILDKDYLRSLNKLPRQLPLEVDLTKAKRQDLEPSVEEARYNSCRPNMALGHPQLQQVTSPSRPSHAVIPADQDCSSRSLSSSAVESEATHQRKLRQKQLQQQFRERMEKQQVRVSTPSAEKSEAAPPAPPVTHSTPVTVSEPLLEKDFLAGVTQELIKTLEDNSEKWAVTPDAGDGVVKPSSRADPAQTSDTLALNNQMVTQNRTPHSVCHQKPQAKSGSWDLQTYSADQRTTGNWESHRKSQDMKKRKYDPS

[10] = Counterscreen for activators of the function of SWI/SNF related, matrix associated, actin dependent regulator of chromatin, subfamily a, member 2 (SMARCA2, BRM): Luminescence-based cell-based high throughput dose response assay to identify non-selective compounds using the VP16 reporter assay.; assay type: functional
[11] = MDA-MB-231 cell growth inhibition, dose response, cytotoxicity control for RAD54 inhibitor project, CellTiter-Glo luminescence, cherry-pick (AID 651692); assay type: functional, cell-based
[12] = target: T5, Apoptotic protease-activating factor 1 (Homo sapiens, UniProt O14727); assay: SAR analysis of small molecule Activators of Apaf-1 in a Fluorescent assay.; assay type: functional; settings: read-out: EC50_Mean;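 also: caspase-3 cleavage of fluorogenic Rh110 DEVD substrate downstream of apoptosome activation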
T5 sequence (O14727 whole entry): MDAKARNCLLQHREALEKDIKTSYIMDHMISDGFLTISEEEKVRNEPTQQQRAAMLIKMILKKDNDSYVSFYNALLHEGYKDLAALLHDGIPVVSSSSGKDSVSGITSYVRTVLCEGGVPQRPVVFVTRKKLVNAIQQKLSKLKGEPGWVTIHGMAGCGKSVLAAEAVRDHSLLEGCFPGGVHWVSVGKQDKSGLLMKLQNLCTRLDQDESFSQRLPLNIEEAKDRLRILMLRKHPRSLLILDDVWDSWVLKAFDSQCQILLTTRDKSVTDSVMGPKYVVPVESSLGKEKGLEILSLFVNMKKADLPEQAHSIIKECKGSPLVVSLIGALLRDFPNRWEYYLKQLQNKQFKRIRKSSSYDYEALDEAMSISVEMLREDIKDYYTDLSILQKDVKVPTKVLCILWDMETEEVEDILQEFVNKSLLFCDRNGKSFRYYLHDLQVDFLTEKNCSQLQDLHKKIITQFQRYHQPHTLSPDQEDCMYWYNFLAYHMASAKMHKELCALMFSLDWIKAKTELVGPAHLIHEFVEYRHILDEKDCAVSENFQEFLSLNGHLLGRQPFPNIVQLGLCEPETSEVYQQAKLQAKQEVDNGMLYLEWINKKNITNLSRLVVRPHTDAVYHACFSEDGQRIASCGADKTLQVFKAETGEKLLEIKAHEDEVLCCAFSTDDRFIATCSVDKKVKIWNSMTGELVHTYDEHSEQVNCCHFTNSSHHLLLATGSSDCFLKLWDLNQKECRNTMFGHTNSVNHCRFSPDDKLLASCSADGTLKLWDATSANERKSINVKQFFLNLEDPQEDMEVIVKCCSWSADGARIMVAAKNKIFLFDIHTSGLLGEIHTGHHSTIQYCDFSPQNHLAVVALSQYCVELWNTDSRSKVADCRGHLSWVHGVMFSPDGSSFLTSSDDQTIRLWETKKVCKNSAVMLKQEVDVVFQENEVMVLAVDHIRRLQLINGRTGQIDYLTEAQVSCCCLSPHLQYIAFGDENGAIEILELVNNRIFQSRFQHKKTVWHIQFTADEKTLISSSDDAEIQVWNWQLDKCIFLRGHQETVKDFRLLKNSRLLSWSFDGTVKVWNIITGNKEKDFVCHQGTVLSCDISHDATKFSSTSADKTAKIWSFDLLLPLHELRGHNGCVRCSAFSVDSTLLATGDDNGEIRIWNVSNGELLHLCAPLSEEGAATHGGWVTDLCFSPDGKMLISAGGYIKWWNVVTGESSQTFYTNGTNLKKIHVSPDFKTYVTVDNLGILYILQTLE

[13] = target: T6, ATP-dependent translocase ABCB1 (Homo sapiens, UniProt P08183); assay: ABCG2 efflux pump inhibitor potency, dose response, Ig-MXP3 cells, JC-1, flow cytometry, set 2 (AID 504566); assay type: functional; settings: read-out: EC50_MICROM_;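 also: flow cytometry median green fluorescence of retained JC-1 dye; potency of efflux pump inhibition measured as rising substrate retention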
[14] = target: T6, ATP-dependent translocase ABCB1; assay: ABCB1 efflux inhibitor potency, dose response, Jurkat-DNR cells, JC-1, flow cytometry, set 2 (AID 504569); assay type: functional; settings: read-out: EC50_MICROM_;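 also: potency of pump inhibitors that raise cellular JC-1 green fluorescence up to the nicardipine level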

T6 sequence (P08183 whole entry): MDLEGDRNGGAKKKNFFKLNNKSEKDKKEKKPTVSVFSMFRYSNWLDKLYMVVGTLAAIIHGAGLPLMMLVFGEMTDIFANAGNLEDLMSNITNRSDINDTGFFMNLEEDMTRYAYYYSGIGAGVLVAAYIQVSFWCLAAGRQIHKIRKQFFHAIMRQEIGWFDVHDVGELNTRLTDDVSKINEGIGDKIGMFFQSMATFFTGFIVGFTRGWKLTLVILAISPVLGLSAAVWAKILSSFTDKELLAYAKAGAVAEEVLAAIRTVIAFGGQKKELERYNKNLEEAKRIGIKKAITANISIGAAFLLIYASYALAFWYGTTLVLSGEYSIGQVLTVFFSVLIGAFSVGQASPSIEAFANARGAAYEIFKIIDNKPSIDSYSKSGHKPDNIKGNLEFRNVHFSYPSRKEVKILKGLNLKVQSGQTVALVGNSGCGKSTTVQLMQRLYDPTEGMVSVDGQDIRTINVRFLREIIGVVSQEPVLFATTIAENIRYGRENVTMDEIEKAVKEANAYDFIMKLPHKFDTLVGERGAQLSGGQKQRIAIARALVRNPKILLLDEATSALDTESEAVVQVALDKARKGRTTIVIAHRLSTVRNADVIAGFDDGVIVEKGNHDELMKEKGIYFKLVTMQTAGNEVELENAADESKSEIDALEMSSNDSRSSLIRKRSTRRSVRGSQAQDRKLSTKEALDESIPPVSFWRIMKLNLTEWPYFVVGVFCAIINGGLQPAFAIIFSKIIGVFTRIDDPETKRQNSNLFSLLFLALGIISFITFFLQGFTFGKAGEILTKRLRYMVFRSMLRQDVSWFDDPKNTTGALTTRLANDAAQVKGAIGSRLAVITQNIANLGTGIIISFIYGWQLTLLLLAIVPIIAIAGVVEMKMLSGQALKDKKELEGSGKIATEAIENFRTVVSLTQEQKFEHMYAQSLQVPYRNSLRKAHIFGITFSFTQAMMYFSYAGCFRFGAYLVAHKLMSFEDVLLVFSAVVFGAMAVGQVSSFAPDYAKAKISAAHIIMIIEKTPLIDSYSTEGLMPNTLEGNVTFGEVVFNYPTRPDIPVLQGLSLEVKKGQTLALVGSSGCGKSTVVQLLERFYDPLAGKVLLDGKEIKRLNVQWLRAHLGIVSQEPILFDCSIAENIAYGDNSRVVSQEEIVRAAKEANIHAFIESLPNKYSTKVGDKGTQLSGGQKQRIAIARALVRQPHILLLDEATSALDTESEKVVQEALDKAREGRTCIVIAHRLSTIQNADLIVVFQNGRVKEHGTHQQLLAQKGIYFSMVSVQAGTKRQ
Chain of SWI/SNF-related matrix-associated actin-dependent regulator of chromatin subfamily A member 2 (P51531 whole entry): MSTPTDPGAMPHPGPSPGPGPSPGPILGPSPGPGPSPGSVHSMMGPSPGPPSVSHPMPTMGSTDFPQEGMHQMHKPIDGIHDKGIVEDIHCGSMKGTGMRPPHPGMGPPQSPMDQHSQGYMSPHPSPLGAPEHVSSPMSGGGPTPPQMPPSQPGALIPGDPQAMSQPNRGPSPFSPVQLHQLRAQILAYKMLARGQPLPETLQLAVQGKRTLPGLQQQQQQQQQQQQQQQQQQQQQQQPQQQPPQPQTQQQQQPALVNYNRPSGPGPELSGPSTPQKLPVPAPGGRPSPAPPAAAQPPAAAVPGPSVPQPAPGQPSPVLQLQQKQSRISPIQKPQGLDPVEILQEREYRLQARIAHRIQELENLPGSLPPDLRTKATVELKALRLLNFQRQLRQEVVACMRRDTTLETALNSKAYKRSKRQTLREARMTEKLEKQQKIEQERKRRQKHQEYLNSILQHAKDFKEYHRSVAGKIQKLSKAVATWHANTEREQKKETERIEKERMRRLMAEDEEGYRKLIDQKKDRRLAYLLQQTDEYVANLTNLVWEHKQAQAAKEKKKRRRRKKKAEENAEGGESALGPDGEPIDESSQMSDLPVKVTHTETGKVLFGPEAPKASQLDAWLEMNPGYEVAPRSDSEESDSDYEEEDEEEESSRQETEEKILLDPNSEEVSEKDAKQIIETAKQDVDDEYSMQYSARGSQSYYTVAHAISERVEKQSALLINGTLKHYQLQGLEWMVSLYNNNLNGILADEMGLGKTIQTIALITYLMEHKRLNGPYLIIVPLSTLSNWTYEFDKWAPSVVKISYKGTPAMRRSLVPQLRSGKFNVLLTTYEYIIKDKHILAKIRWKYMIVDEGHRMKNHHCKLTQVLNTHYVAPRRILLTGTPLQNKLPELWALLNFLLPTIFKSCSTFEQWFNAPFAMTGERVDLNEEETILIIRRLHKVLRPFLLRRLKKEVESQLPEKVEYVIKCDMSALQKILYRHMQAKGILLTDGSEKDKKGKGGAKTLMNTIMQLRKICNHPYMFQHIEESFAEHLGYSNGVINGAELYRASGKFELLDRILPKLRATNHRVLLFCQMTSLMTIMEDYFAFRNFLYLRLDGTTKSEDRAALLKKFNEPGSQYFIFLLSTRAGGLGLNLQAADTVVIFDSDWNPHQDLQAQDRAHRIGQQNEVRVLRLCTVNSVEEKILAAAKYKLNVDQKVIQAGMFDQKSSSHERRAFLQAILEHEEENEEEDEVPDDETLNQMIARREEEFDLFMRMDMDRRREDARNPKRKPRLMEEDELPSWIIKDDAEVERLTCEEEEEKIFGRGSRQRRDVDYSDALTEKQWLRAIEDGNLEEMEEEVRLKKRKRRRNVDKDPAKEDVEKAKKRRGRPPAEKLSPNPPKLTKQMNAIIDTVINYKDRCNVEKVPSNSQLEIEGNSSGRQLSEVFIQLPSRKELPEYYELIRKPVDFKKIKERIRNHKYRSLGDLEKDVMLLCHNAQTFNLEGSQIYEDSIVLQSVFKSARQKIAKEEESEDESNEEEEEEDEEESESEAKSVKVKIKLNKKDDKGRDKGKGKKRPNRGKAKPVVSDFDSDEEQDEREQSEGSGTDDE
Chain of DNA (cytosine-5)-methyltransferase 1 (P26358 whole entry): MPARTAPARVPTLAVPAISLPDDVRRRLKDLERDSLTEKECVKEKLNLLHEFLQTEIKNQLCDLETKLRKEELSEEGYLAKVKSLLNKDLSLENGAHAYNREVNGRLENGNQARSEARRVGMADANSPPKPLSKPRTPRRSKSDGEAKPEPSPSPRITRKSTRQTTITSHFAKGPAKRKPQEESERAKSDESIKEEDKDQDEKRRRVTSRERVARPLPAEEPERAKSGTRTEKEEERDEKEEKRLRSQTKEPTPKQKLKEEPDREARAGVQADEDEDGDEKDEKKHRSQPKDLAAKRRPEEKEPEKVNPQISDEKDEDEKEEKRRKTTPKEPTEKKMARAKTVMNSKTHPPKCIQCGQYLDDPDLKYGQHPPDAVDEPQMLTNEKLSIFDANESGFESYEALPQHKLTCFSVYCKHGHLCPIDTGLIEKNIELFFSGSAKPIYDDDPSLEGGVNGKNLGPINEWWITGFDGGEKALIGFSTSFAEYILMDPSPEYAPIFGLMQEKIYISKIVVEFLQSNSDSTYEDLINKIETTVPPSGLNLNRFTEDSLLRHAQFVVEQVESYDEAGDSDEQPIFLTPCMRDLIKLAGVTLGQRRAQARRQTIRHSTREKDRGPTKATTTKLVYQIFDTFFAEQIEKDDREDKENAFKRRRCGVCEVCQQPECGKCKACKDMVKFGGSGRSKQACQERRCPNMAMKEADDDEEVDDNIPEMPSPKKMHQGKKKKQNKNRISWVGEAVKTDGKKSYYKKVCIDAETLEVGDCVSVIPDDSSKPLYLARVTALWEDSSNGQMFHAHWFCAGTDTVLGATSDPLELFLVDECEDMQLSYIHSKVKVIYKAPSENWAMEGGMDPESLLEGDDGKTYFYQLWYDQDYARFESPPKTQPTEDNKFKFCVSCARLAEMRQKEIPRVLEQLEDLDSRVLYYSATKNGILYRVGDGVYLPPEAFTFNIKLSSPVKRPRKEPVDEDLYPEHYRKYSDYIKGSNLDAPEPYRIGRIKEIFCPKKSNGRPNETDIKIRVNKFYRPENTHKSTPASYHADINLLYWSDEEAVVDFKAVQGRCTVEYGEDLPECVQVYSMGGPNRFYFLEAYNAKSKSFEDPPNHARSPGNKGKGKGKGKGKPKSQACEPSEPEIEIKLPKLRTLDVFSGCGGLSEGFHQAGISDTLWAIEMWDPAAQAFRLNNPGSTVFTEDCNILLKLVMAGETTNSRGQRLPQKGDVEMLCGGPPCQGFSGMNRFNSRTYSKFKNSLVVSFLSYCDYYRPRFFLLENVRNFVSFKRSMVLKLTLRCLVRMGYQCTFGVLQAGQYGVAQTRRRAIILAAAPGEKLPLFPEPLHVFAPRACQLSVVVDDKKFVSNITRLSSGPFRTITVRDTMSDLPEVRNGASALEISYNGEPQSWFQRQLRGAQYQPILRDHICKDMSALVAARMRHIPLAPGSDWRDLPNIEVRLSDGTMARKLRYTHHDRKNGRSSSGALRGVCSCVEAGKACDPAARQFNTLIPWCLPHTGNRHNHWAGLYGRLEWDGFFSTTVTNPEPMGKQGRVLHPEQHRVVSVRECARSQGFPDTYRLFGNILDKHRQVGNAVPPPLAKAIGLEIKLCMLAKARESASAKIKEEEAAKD

IC50 [1]: 80 µM (inactive)
Structure (SMILES): C/C(=N\NS(=O)(=O)c1ccc(Cl)c([N+](=O)[O-])c1)c1ccc(C)o1

Structure (SMILES): O=C(Nc1ccc(S(=O)(=O)Nc2cnc3ccccc3n2)cc1)c1ccc(Cl)cc1Cl
IC50 [2]: 9.55 µM (active)
IC50 [3]: 3.25 µM (active)
IC50 [4]: 2.82 µM (active)

Structure (SMILES): COc1ccc2nc(C)cc(Nc3ccc(N4CCN(C)CC4)cc3)c2c1
IC50 [5]: 11.4 µM (active)
AC50 [6]: 62 µM (active)
AC50 [7]: 2.45 µM (active)
EC50 [8]: > 3.38 µM (active)
AC50 [9]: 1.27 µM (active)
EC50 [10]: > 10.1 µM (inactive)
AC50 [11]: 52 µM (inactive)

EC50 [12]: > 100 µM (inactive)
Structure (SMILES): CCC(=O)N1CCc2cc(Br)c(S(=O)(=O)CCC(=O)Nc3cc(Cl)ccc3OC)cc21

EC50 [13]: 2.6 µM (active)
EC50 [14]: 2.22 µM (active)
Structure (SMILES): COc1cccc(C(=O)N2CCN(c3cc(-c4ccccc4)nc4cc(-c5cccc(Cl)c5)nn34)CC2)c1
